Reference: US8192962B2, “Processes for detecting toxic substances” (Daikin Industries, Ltd., priority 2001, dated 2012)

Test system: DNA repair protein genes
Assay: DNA chip mRNA expression in yeast, DNA repair protein genes (Table 3)
Format: cell-based, Saccharomyces cerevisiae S288C
Settings: incubated two hours, concentrations as in the 1st table
Method in brief: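 Chemical exposure: 2 h, log-phase S. cerevisiae S288C, YPD, 25° C., dose set to inhibit growth without death. Profiling: mRNA labeled by reverse transcription with Cy3- or Cy5-dUTP, hybridized to whole-genome array. Output: fluorescence ratio against untreated culture.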

## CCCCCCCCCCCCOS(=O)(=O)[O-].[Na+] [(18), sodium lauryl sulfate]
Yeast gene YAL015C
  The level of expressed mRNA in the presence of chemical substance/The level of expressed mRNA in the absence of chemical substance: 1.2
Yeast gene YAR007C
  The level of expressed mRNA in the presence of chemical substance/The level of expressed mRNA in the absence of chemical substance: 1.0
Yeast gene YBL019W
  The level of expressed mRNA in the presence of chemical substance/The level of expressed mRNA in the absence of chemical substance: 1.1
Yeast gene YBR073W
  The level of expressed mRNA in the presence of chemical substance/The level of expressed mRNA in the absence of chemical substance: 0.8
Yeast gene YBR272C
  The level of expressed mRNA in the presence of chemical substance/The level of expressed mRNA in the absence of chemical substance: 1.2
Yeast gene YCR014C
  The level of expressed mRNA in the presence of chemical substance/The level of expressed mRNA in the absence of chemical substance: 0.9
Yeast gene YDL017W
  The level of expressed mRNA in the presence of chemical substance/The level of expressed mRNA in the absence of chemical substance: 1.0
Yeast gene YDL059C
  The level of expressed mRNA in the presence of chemical substance/The level of expressed mRNA in the absence of chemical substance: 0.9
Yeast gene YDL200C
  The level of expressed mRNA in the presence of chemical substance/The level of expressed mRNA in the absence of chemical substance: 1.6
Yeast gene YDR054C
  The level of expressed mRNA in the presence of chemical substance/The level of expressed mRNA in the absence of chemical substance: 1.4
Yeast gene YDR369C
  The level of expressed mRNA in the presence of chemical substance/The level of expressed mRNA in the absence of chemical substance: 0.7
Yeast gene YEL019C
  The level of expressed mRNA in the presence of chemical substance/The level of expressed mRNA in the absence of chemical substance: 0.9
Yeast gene YEL037C
  The level of expressed mRNA in the presence of chemical substance/The level of expressed mRNA in the absence of chemical substance: 0.8
Yeast gene YER162C
  The level of expressed mRNA in the presence of chemical substance/The level of expressed mRNA in the absence of chemical substance: 0.9
Yeast gene YFL014W
  The level of expressed mRNA in the presence of chemical substance/The level of expressed mRNA in the absence of chemical substance: 8.8
Yeast gene YGL058W
  The level of expressed mRNA in the presence of chemical substance/The level of expressed mRNA in the absence of chemical substance: 0.7
Yeast gene YGL091C
  The level of expressed mRNA in the presence of chemical substance/The level of expressed mRNA in the absence of chemical substance: 1.8
Yeast gene YGL127C
  The level of expressed mRNA in the presence of chemical substance/The level of expressed mRNA in the absence of chemical substance: 1.2
Yeast gene YGL163C
  The level of expressed mRNA in the presence of chemical substance/The level of expressed mRNA in the absence of chemical substance: 0.8
Yeast gene YGL249W
  The level of expressed mRNA in the presence of chemical substance/The level of expressed mRNA in the absence of chemical substance: 1.0
Yeast gene YGR180C
  The level of expressed mRNA in the presence of chemical substance/The level of expressed mRNA in the absence of chemical substance: 1.9
Yeast gene YGR231C
  The level of expressed mRNA in the presence of chemical substance/The level of expressed mRNA in the absence of chemical substance: 1.5
Yeast gene YGR258C
  The level of expressed mRNA in the presence of chemical substance/The level of expressed mRNA in the absence of chemical substance: 0.9
Yeast gene YHR164C
  The level of expressed mRNA in the presence of chemical substance/The level of expressed mRNA in the absence of chemical substance: 1.0
Yeast gene YIL036W
  The level of expressed mRNA in the presence of chemical substance/The level of expressed mRNA in the absence of chemical substance: 1.3
Yeast gene YIL072W
  The level of expressed mRNA in the presence of chemical substance/The level of expressed mRNA in the absence of chemical substance: 1.1
Yeast gene YIL143C
  The level of expressed mRNA in the presence of chemical substance/The level of expressed mRNA in the absence of chemical substance: 0.9
Yeast gene YIL153W
  The level of expressed mRNA in the presence of chemical substance/The level of expressed mRNA in the absence of chemical substance: 0.7
Yeast gene YIR002C
  The level of expressed mRNA in the presence of chemical substance/The level of expressed mRNA in the absence of chemical substance: 1.2
Yeast gene YJL026W
  The level of expressed mRNA in the presence of chemical substance/The level of expressed mRNA in the absence of chemical substance: 2.1
Yeast gene YJR046W
  The level of expressed mRNA in the presence of chemical substance/The level of expressed mRNA in the absence of chemical substance: 0.7
Yeast gene YJR052W
  The level of expressed mRNA in the presence of chemical substance/The level of expressed mRNA in the absence of chemical substance: 1.3
Yeast gene YKL145W
  The level of expressed mRNA in the presence of chemical substance/The level of expressed mRNA in the absence of chemical substance: 1.5
Yeast gene YLR103C
  The level of expressed mRNA in the presence of chemical substance/The level of expressed mRNA in the absence of chemical substance: 1.4
Yeast gene YLR233C
  The level of expressed mRNA in the presence of chemical substance/The level of expressed mRNA in the absence of chemical substance: 1.2
Yeast gene YLR288C
  The level of expressed mRNA in the presence of chemical substance/The level of expressed mRNA in the absence of chemical substance: 1.3
Yeast gene YML032C
  The level of expressed mRNA in the presence of chemical substance/The level of expressed mRNA in the absence of chemical substance: 1.0
Yeast gene YML058W
  The level of expressed mRNA in the presence of chemical substance/The level of expressed mRNA in the absence of chemical substance: 1.5
Yeast gene YMR035W
  The level of expressed mRNA in the presence of chemical substance/The level of expressed mRNA in the absence of chemical substance: 2.4
Yeast gene YMR072W
  The level of expressed mRNA in the presence of chemical substance/The level of expressed mRNA in the absence of chemical substance: 1.9
Yeast gene YMR096W
  The level of expressed mRNA in the presence of chemical substance/The level of expressed mRNA in the absence of chemical substance: 1.0
Yeast gene YMR284W
  The level of expressed mRNA in the presence of chemical substance/The level of expressed mRNA in the absence of chemical substance: 1.3
Yeast gene YNL213C
  The level of expressed mRNA in the presence of chemical substance/The level of expressed mRNA in the absence of chemical substance: 1.2
Yeast gene YNL250W
  The level of expressed mRNA in the presence of chemical substance/The level of expressed mRNA in the absence of chemical substance: 1.0
Yeast gene YNL261W
  The level of expressed mRNA in the presence of chemical substance/The level of expressed mRNA in the absence of chemical substance: 1.0
Yeast gene YNL312W
  The level of expressed mRNA in the presence of chemical substance/The level of expressed mRNA in the absence of chemical substance: 1.1
Yeast gene YOL043C
  The level of expressed mRNA in the presence of chemical substance/The level of expressed mRNA in the absence of chemical substance: 1.0
Yeast gene YOR005C
  The level of expressed mRNA in the presence of chemical substance/The level of expressed mRNA in the absence of chemical substance: 1.0
Yeast gene YOR386W
  The level of expressed mRNA in the presence of chemical substance/The level of expressed mRNA in the absence of chemical substance: 1.7
Yeast gene YPL022W
  The level of expressed mRNA in the presence of chemical substance/The level of expressed mRNA in the absence of chemical substance: 0.9
Yeast gene YPL164C
  The level of expressed mRNA in the presence of chemical substance/The level of expressed mRNA in the absence of chemical substance: 1.0
Yeast gene YPL194W
  The level of expressed mRNA in the presence of chemical substance/The level of expressed mRNA in the absence of chemical substance: 0.8
Yeast gene YPR025C
  The level of expressed mRNA in the presence of chemical substance/The level of expressed mRNA in the absence of chemical substance: 1.5
